Test results published in PubChem BioAssay AID489017 (The Scripps Research Institute Molecular Screening Center, 2010).
Activity calls are given as the source filed them. The rule behind the calls is not given here.

What was measured:
Assay in all cases: off-target binding and CYP450 inhibition panel, profiling panel, selectivity assay for S1P4 antagonist project, biochemical, Ricerca HitProfilingScreen (AID 489017)
[1] = system: Adrenergic alpha1B; conditions: Ricerca receptor/enzyme binding panel plus CYP450, at 10 µM, active compounds read high
[2] = system: Glutamate NMDA; conditions: Ricerca receptor/enzyme binding panel plus CYP450, Phencyclidine site, at 10 µM, active compounds read high
[3] = biological target: Muscarinic acetylcholine receptor M3 (Homo sapiens) (UniProt P20309); conditions: Ricerca receptor/enzyme binding panel plus CYP450, at 10 µM, active compounds read high
[4] = biological target: Cytochrome P450 2C9 (Homo sapiens) (UniProt P11712); conditions: Ricerca receptor/enzyme binding panel plus CYP450; CYP450 2C9; at 10 µM; active compounds read high
[5] = system: Norepinephrine Transporter (NET); conditions: Ricerca receptor/enzyme binding panel plus CYP450, at 10 µM, active compounds read high
[6] = biological target: 5-hydroxytryptamine receptor 2B (Homo sapiens) (UniProt P41595); conditions: Ricerca receptor/enzyme binding panel plus CYP450; Serotonin (5-Hydroxytryptamine) 5-HT2B; at 10 µM; active compounds read high
[7] = biological target: Voltage-gated inwardly rectifying potassium channel KCNH2 (Homo sapiens) (UniProt Q12809); conditions: Ricerca receptor/enzyme binding panel plus CYP450; Potassium Channel hERG; at 10 µM; active compounds read high
[8] = system: Adenosine A1; conditions: Ricerca receptor/enzyme binding panel plus CYP450, at 10 µM, active compounds read high
[9] = system: Calcium Channel L-Type; conditions: Ricerca receptor/enzyme binding panel plus CYP450, Dihydropyridine site, at 10 µM, active compounds read high
[10] = system: Sodium Channel; conditions: Ricerca receptor/enzyme binding panel plus CYP450, site 2, at 10 µM, active compounds read high
[11] = system: Nicotinic Acetylcholine; conditions: Ricerca receptor/enzyme binding panel plus CYP450, at 10 µM, active compounds read high
[12] = system: Opiate mu (OP3, MOP); conditions: Ricerca receptor/enzyme binding panel plus CYP450, at 10 µM, active compounds read high
[13] = system: Cannabinoid CB1; conditions: Ricerca receptor/enzyme binding panel plus CYP450, at 10 µM, active compounds read high
[14] = biological target: Cytochrome P450 2D6 (Homo sapiens) (UniProt P10635); conditions: Ricerca receptor/enzyme binding panel plus CYP450; CYP450 2D6; at 10 µM; active compounds read high
[15] = biological target: Beta-2 adrenergic receptor (Homo sapiens) (UniProt P07550); conditions: Ricerca receptor/enzyme binding panel plus CYP450; Adrenergic beta2; at 10 µM; active compounds read high
[16] = system: Histamine H1; conditions: Ricerca receptor/enzyme binding panel plus CYP450, at 10 µM, active compounds read high
[17] = biological target: Muscarinic acetylcholine receptor M2 (Homo sapiens) (UniProt P08172); conditions: Ricerca receptor/enzyme binding panel plus CYP450, at 10 µM, active compounds read high
[18] = system: Adrenergic beta1; conditions: Ricerca receptor/enzyme binding panel plus CYP450, at 10 µM, active compounds read high
[19] = system: Adenosine A2A; conditions: Ricerca receptor/enzyme binding panel plus CYP450, at 10 µM, active compounds read high
[20] = system: GABAA Central; conditions: at 10 µM, active compounds read high
[21] = system: Prostanoid EP4; conditions: Ricerca receptor/enzyme binding panel plus CYP450, at 10 µM, active compounds read high
[22] = biological target: Cytochrome P450 3A4 (Homo sapiens) (UniProt P08684); conditions: Ricerca receptor/enzyme binding panel plus CYP450; CYP450 3A4; at 10 µM; active compounds read high
[23] = system: Alpha-2A adrenergic receptor (Homo sapiens) + Histamine H1 receptor (Homo sapiens) + Mu-type opioid receptor (Homo sapiens); conditions: Ricerca receptor/enzyme binding panel plus CYP450; at 10 µM; active compounds read high
[24] = biological target: D(1A) dopamine receptor (Homo sapiens) (UniProt P21728); conditions: Ricerca receptor/enzyme binding panel plus CYP450; Dopamine D1; at 10 µM; active compounds read high
[25] = system: Sigma 1; conditions: Ricerca receptor/enzyme binding panel plus CYP450, at 10 µM, active compounds read high
[26] = biological target: Alpha-2A adrenergic receptor (Homo sapiens) (UniProt P08913); conditions: Ricerca receptor/enzyme binding panel plus CYP450; Adrenergic alpha2A; at 10 µM; active compounds read high
[27] = biological target: Cytochrome P450 1A2 (Homo sapiens) (UniProt P05177); conditions: Ricerca receptor/enzyme binding panel plus CYP450; CYP450 1A2; at 10 µM; active compounds read high
[28] = system: CYP450 2C19; conditions: Ricerca receptor/enzyme binding panel plus CYP450, at 10 µM, active compounds read high
[29] = system: Adrenergic alpha1A; conditions: Ricerca receptor/enzyme binding panel plus CYP450, at 10 µM, active compounds read high
[30] = system: Dopamine D2S; conditions: Ricerca receptor/enzyme binding panel plus CYP450, at 10 µM, active compounds read high

Chain of Alpha-2A adrenergic receptor (Homo sapiens) (P08913 whole entry, looked up): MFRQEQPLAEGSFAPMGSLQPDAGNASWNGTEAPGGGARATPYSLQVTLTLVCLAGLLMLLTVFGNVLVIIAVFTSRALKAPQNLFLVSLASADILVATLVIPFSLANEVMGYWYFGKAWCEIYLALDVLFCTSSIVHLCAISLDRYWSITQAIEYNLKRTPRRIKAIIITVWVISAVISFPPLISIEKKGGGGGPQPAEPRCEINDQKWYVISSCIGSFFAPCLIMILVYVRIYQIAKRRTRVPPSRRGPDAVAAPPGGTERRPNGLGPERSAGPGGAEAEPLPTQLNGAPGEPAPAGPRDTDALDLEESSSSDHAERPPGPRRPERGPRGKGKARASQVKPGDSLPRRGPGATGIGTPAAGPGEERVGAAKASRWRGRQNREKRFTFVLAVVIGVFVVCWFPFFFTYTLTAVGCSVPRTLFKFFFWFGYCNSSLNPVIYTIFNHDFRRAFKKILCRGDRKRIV
Chain of D(1A) dopamine receptor (Homo sapiens) (P21728 whole entry, looked up): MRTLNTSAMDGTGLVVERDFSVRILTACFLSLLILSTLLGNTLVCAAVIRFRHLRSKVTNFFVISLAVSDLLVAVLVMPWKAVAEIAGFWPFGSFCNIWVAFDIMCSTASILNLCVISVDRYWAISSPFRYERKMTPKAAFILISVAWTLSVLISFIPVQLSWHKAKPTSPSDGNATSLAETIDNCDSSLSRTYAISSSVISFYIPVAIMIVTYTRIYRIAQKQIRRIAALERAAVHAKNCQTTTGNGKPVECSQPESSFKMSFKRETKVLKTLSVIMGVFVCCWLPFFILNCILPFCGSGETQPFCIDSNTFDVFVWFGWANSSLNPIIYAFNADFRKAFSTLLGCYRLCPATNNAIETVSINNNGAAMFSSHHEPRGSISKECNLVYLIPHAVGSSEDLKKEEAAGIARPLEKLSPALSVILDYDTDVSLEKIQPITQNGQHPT
Chain of Cytochrome P450 2C9 (Homo sapiens) (P11712 whole entry, looked up): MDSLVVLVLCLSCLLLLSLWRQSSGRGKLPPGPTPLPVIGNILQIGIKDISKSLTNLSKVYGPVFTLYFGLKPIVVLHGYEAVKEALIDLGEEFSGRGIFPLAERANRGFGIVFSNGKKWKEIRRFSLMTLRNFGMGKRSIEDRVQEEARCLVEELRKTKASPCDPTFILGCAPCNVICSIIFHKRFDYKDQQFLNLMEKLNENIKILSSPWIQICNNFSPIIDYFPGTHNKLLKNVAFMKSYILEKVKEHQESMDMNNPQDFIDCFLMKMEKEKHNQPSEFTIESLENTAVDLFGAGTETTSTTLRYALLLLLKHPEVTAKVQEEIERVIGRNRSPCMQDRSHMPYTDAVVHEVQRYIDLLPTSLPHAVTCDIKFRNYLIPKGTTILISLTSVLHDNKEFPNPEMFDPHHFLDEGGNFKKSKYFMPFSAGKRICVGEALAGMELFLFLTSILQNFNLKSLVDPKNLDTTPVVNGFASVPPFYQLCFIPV
Chain of Cytochrome P450 3A4 (Homo sapiens) (P08684 whole entry, looked up): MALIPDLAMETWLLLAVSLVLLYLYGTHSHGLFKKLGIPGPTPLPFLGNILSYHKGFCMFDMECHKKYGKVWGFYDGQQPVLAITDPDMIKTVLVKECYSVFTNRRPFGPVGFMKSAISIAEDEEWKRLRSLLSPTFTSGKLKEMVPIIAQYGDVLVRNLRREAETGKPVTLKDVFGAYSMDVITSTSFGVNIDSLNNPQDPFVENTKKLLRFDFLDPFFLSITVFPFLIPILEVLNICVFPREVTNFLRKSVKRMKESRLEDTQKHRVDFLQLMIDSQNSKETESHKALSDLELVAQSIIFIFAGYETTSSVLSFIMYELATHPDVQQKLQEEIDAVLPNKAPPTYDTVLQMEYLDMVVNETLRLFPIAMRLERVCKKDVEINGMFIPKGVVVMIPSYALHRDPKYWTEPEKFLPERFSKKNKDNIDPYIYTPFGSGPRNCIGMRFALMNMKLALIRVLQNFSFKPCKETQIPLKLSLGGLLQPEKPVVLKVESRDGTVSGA
Chain of Muscarinic acetylcholine receptor M2 (Homo sapiens) (P08172 whole entry, looked up): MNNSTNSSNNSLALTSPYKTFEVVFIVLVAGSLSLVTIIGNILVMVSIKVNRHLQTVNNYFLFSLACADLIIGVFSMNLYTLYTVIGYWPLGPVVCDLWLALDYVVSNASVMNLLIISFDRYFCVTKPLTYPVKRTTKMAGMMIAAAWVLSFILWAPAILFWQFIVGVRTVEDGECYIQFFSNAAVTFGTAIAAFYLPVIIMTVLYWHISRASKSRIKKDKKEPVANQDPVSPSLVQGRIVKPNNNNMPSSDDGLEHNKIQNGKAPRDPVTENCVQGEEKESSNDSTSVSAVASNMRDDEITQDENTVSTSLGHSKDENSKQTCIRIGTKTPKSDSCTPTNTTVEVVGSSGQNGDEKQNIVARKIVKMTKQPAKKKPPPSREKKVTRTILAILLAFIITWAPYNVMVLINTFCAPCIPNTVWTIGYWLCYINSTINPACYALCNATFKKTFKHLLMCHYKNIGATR
Chain of 5-hydroxytryptamine receptor 2B (Homo sapiens) (P41595 whole entry, looked up): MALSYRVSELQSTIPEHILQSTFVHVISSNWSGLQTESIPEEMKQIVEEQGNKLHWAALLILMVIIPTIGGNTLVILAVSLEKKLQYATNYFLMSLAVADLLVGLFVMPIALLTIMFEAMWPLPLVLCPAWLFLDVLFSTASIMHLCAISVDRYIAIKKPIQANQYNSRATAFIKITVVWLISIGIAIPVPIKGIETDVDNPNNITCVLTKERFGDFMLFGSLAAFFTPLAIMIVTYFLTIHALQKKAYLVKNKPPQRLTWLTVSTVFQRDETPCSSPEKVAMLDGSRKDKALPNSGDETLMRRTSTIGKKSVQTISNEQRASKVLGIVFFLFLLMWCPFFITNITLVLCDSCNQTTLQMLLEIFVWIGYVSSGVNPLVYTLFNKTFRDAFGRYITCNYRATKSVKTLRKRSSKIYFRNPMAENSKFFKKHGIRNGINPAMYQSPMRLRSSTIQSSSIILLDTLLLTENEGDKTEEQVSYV
Chain of Voltage-gated inwardly rectifying potassium channel KCNH2 (Homo sapiens) (Q12809 whole entry, looked up): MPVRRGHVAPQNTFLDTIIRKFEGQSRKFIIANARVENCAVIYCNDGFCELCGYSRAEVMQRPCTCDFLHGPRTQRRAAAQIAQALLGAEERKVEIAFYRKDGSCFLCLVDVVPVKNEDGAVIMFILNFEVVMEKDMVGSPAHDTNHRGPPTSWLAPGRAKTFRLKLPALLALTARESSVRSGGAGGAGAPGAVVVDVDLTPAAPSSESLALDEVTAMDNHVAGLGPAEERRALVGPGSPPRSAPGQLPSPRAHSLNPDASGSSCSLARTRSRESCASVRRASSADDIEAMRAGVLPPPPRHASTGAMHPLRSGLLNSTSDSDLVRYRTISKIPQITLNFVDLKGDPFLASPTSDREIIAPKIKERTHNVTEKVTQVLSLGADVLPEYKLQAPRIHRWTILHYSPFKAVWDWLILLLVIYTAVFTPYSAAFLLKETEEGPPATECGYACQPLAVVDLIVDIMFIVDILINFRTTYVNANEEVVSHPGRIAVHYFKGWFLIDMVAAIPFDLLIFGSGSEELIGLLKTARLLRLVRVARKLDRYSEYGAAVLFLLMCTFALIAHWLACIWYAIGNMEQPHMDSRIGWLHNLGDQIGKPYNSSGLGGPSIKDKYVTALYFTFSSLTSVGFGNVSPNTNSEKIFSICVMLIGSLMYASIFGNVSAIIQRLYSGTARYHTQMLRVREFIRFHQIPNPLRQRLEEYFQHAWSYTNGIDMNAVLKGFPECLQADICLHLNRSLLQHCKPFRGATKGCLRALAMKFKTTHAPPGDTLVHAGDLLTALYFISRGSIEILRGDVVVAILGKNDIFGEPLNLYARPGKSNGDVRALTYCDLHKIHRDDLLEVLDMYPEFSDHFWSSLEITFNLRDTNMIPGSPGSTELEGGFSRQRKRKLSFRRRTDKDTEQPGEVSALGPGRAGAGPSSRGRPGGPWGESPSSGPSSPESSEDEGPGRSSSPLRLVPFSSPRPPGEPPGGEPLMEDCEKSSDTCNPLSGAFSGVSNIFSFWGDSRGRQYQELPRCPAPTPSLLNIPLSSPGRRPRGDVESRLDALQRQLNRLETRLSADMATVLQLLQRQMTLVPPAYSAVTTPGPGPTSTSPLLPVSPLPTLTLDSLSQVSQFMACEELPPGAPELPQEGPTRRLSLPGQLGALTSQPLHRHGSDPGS
Chain of Cytochrome P450 2D6 (Homo sapiens) (P10635 whole entry, looked up): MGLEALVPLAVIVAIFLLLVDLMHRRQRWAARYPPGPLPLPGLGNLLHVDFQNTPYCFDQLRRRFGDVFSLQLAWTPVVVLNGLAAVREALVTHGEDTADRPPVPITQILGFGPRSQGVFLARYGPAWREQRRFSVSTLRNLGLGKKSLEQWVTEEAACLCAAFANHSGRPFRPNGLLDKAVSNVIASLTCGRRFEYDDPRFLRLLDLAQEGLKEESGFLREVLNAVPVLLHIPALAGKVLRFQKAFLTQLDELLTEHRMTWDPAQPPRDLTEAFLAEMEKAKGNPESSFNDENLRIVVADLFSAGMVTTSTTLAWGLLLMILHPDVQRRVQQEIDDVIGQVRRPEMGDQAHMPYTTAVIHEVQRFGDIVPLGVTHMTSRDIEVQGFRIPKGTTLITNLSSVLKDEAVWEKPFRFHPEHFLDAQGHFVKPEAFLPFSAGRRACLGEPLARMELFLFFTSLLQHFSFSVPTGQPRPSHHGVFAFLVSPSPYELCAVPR
Chain of Beta-2 adrenergic receptor (Homo sapiens) (P07550 whole entry, looked up): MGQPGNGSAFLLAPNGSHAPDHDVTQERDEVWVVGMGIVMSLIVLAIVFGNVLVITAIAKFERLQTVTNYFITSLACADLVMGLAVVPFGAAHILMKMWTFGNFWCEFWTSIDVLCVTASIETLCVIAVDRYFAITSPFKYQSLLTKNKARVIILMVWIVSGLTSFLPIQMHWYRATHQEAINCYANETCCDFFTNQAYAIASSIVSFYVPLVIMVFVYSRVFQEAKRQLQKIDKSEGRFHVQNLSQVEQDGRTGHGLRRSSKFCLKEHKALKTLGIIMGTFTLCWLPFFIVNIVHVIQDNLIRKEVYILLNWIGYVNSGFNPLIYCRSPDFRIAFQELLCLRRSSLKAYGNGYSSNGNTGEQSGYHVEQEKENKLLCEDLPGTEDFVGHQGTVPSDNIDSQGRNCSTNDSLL

For CCc1cccc(CC)c1NC(=O)c1ccc(-c2cc(Cl)ccc2Cl)o1, the inhibition [1] was -6% (inactive), the inhibition [2] was 1% (inactive) and the inhibition [3] was 2% (inactive). The inhibition [4] was 51%, the inhibition [5] was 17% (inactive) and the inhibition [6] was 40% (inactive). For the same compound, the inhibition [7] was 10% (inactive), the inhibition [8] was 0% (inactive) and the inhibition [9] was 12% (inactive). For the same compound, the inhibition [10] was 43% (inactive), the inhibition [11] was -12% (inactive) and the inhibition [12] was 8% (inactive). The inhibition [13] was 15% (inactive), the inhibition [14] was 1% (inactive) and the inhibition [15] was 11% (inactive). For the same compound, the inhibition [16] was 30% (inactive), the inhibition [17] was -3% (inactive) and the inhibition [18] was 0% (inactive). The inhibition [19] was -6% (inactive), the inhibition ([20]; Ricerca receptor/enzyme binding panel plus CYP450, Flunitrazepam site) was 7% (inactive) and the inhibition ([20]; Ricerca receptor/enzyme binding panel plus CYP450, Muscimol site) was 8% (inactive). For the same compound, the inhibition [21] was 27% (inactive), the inhibition [22] was 22% (inactive) and the inhibition [23] was -4% (inactive). For the same compound, the inhibition [24] was 5% (inactive), the inhibition [25] was -7% (inactive) and the inhibition [26] was 18% (inactive). For the same compound, the inhibition [27] was 27% (inactive), the inhibition [28] was 37% (inactive) and the inhibition [29] was -3% (inactive). For the same compound, the inhibition [30] was 13% (inactive).
